Laboratory results reported in PMC10096175, “An In Vitro Antimicrobial, Anticancer and Antioxidant Activity of N–[(2–Arylmethylthio)phenylsulfonyl]cinnamamide Derivatives” (Molecules, 2023).
In brackets after ≈: the same amount, converted by molar mass. Read-outs that look alike come from different tables or passages of the source.

Experiments:
ABTS assay = conditions: ABTS radical scavenging; 10 min, 30 °C
Method: The ABTS assay was performed spectrophotometrically. […] ABTS solution with methanol/DMSO (9/1 v/v) was used as a control. After 10 min of incubation at 30 °C in the dark, the absorbance was analyzed at λ = 750 nm by a 96-well microplate reader (Epoch, BioTek System, Santa Clara, CA, USA). Ascorbic acid was used as a standard.
ABTS inhibition was calculated by the following equation:ABTS Inhibition (%) = [Acontrol − Asample)/Acontrol] × 100%
(§1) IC50 values of the samples were calculated using program GraFit v. 7.0 (Erithacus Software). The analysis was performed three times, with tree replications in each (n = 9). Statistical analysis was performed with one-way ANOVA with Tuckey’s post-hoc test.

S. aureus ATCC 6538 = test: Blood bacteriostatic activity test in sheep blood; assay type: cell-based, Staphylococcus aureus; conditions: 24 h, 37 °C, t0 1.30 × 10^8, control t24 2.28 × 10^9
Method: (§2) The manifestation of the bactericidal properties of chemical compounds is low minimum bactericidal concentration (MBC) values, which allows many groups of researchers to check the killing rate over time (time killing tests). It is an important element in determining the strength and speed of action of a compound on bacteria. Such studies are usually carried out in bacterial media, without additional factors influencing the results.
(§3) This step was carried out on two types of bacteria, S. aureus ATCC 6538 (Figure 8 and Table 2) and S. epidermidis ATCC 14 990 (Figure 9 and Table 3).
(§4) The number of bacteria at the initial time (t0) was 1.30 × 10^8 CFU/mL for S. aureus and 1.70 × 10^7 CFU/mL for S. epidermidis. Live bacterial cells were assayed after 24 h of incubation at 37 °C. […] Bacterial controls without compounds grew unhindered and after 24 h (t24) were 2.28 × 10^9 for S. aureus and 5.10 × 10^8 CFU/mL for S. epidermidis. […] It can be assumed that the tested compounds were not related to any fraction of the blood. Attention should be paid to the S. epidermidis tests and the difference between the number of bacteria at t0 and after 24 h of incubation for each compound. The number of bacteria at t0 was 1.70 × 10^7 CFU/mL and after 24 h it decreased to, e.g., 9.40 × 10^6 CFU/mL for compounds 16e and 7.80 × 10^6 CFU/mL for compound 17c. It can be assumed that the tested compounds after being added to blood samples prevented bacteria from multiplying. However, under these conditions, the phagocytic cells take up the bacteria. […] This can be explained by much greater variety of mechanisms of action of S. aureus against phagocytic cells than of S. epidermidis. This can be integrated with the bacterial cell compounds, e.g., protein A, as well as enzymes that bacteria can secrete outside the cell, e.g., coagulase and staphylokinase. Additional studies should be conducted to check how the tested compounds affect the enzymes secreted by S. aureus.
(§5) The assay was performed as previously described by with a modification. Pure sheep blood was used for the research. Two strains of bacteria S. aureus ATCC 6538 and S. epidermidis ATCC 14990 were used with an inoculum density of approximately 10^8 CFU/mL at 0 time. The final concentration of the compounds was 0.5, 1, 2, 4, and 8 µg/mL, and the final volume of the assay tube was 1 mL. Bacterial survivors were determined on MH agar plates (CFU/mL) at 24 h after exposure.

HeLa cells = test: MTT assay; assay type: cell-based, human; conditions: for IC50: HeLa, MTT, 24 h treatment; for Selectivity index (SI): IC50 HEK-293 / IC50 HeLa
B. subtilis ATCC 6633 = test: MIC determination, reference strain (microdilution); assay type: cell-based; conditions: Bacillus subtilis, ATCC6633; B. subtilis ATCC 6633; Co-trimoxazole as sulfamethoxazole/trimethoprim; read-out: MIC
E. faecalis ATCC 51299 = test: as above; assay type: cell-based; conditions: Enterococcus faecalis, ATCC51299; E. faecalis ATCC 51299; Co-trimoxazole as sulfamethoxazole/trimethoprim; read-out: MIC
HEK-293 cells = test: MTT assay, noncancerous cells; assay type: cell-based; conditions: Homo sapiens, HEK293; HEK-293; MTT, 24 h treatment; read-out: IC50
SKOV-3 cells = test: MTT assay; assay type: cell-based, human; conditions: for IC50: Homo sapiens, SK-OV-3, SKOV-3, MTT, 24 h treatment, read-out: IC50; for Selectivity index (SI): IC50 HEK-293 / IC50 SKOV-3
C. diphtheriae = test: MIC determination, reference strain (microdilution); assay type: cell-based; conditions: Corynebacterium diphtheriae; C. diphtheriae; Co-trimoxazole as sulfamethoxazole/trimethoprim; read-out: MIC
DPPH assay = conditions: DPPH radical scavenging; 40 min, room temperature
Method: The DPPH assay was performed spectrophotometrically. The amount of 30 µL of different concentrations of samples, dissolved in methanol/DMSO (9/1 v/v), was mixed with 170 µL of 0.06 mM DPPH methanolic solution and completed with methanol to a final volume of 300 µL. DPPH methanolic solution with methanol/DMSO (9/1 v/v) was used as a control. After 40 min of incubation at room temperature in the dark, the absorbance was analyzed at λ = 510 nm by a 96-well microplate reader (Epoch, BioTek System, Santa Clara, CA, USA). Ascorbic acid was used as a standard.
DPPH inhibition was calculated by the following equation:DPPH Inhibition (%) = [Acontrol − Asample)/Acontrol] × 100%
as §1

MCF-7 cells = test: MTT assay; assay type: cell-based, human; conditions: for IC50: Homo sapiens, MCF7, MCF-7, MTT, 24 h treatment, read-out: IC50; for Selectivity index (SI): IC50 HEK-293 / IC50 MCF-7
[1] = test system: S. epidermidis ATCC 14990; test: Blood bacteriostatic activity test in sheep blood; assay type: cell-based, Staphylococcus epidermidis; conditions: 24 h, 37 °C, t0 1.70 × 10^7, control t24 5.10 × 10^8
Method: as §2, §3, §4, §5

E. hirae ATCC 10541 = test: MIC determination, reference strain (microdilution); assay type: cell-based; conditions: Enterococcus hirae, ATCC10541; E. hirae ATCC 10541; Co-trimoxazole as sulfamethoxazole/trimethoprim; read-out: MIC
E. coli ATCC 8739 = test: as above; assay type: cell-based; conditions: Escherichia coli, ATCC8739; E. coli ATCC 8739; Co-trimoxazole as sulfamethoxazole/trimethoprim; read-out: MIC
[2] = Homo sapiens, 24 h, read-out: IC50

| IC50 ABTS (ABTS assay) [µg/mL] | IC50 (HeLa cells; [2]) [µg/mL] | MIC (B. subtilis ATCC 6633) [µg/mL] | MIC (E. faecalis ATCC 51299) [µg/mL] | IC50 (SKOV-3 cells) [µg/mL] | MIC (C. diphtheriae) [µg/mL] | IC50 DPPH (DPPH assay) [µg/mL] | IC50 (MCF-7 cells) [µg/mL] | Structure (SMILES) | Number of viable cells of Staphylococcus aureus (S. aureus ATCC 6538; 1 µg/mL) | Number of viable cells of Staphylococcus aureus (S. aureus ATCC 6538; 2 µg/mL) | Number of viable cells of Staphylococcus aureus (S. aureus ATCC 6538; 4 µg/mL) | Number of viable cells of Staphylococcus aureus (S. aureus ATCC 6538; 8 µg/mL) | Selectivity index (SI) (HeLa cells) | IC50 (HEK-293 cells) [µg/mL] | Selectivity index (SI) (SKOV-3 cells) | Selectivity index (SI) (MCF-7 cells) | Number of viable cells of Staphylococcus epidermidis ([1]; 1 µg/mL) | Number of viable cells of Staphylococcus epidermidis ([1]; 2 µg/mL) | Number of viable cells of Staphylococcus epidermidis ([1]; 4 µg/mL) | Number of viable cells of Staphylococcus epidermidis ([1]; 8 µg/mL) | further results |
| --- | --- | --- | --- | --- | --- | --- | --- | --- | --- | --- | --- | --- | --- | --- | --- | --- | --- | --- | --- | --- | --- |
| 697.70 ± 0.43 (≈ 1250 µM) | 12.3 ± 0.2 (≈ 22.2 µM) | 62.5 ± 0.29 (≈ 112 µM) | 4 ± 0.15 (≈ 7.19 µM) | 12.2 ± 0.23 (≈ 21.9 µM) | 62.5 ± 0.29 (≈ 112 µM) | 539.30 ± 0.13 (≈ 970 µM) | 15.5 ± 0.82 (≈ 27.8 µM) | COc1ccc(/C=C/C(=O)NS(=O)(=O)c2cc(C)c(Cl)cc2SCc2cccc3ccccc23)cc1F [Compound 16e, (E)–N–{4–Chloro–5–methyl–2–[(naphthalen–1–yl)methylthio]phenylsulfonyl}–3–(3–fluoro–4–methoxyphenyl)acrylamide] | 2.15 × 10^8 CFU/mL | 1.27 × 10^8 CFU/mL | 1.94 × 10^8 CFU/mL | 2.80 × 10^8 CFU/mL | 0.8 | 10 ± 0.23 (≈ 18 µM) | 0.8 | 0.6 | 9.40 × 10^6 CFU/mL | 4.00 × 10^6 CFU/mL | 3.20 × 10^6 CFU/mL | 3.00 × 10^6 CFU/mL | MIC (E. hirae ATCC 10541): 4 ± 0.15 µg/mL (≈ 7.19 µM); MIC (E. coli ATCC 8739): > 125 µg/mL |
| 496.63 ± 0.48 (≈ 870 µM) | 11.2 ± 0.7 (≈ 19.7 µM) | 62.5 ± 0.29 (≈ 109 µM) | 2 ± 0.58 (≈ 3.5 µM) | 12 ± 1.07 (≈ 20.9 µM) | > 125 | 1077.66 ± 0.42 (≈ 1890 µM) | 11.6 ± 0.91 (≈ 20.4 µM) | Cc1cc(S(=O)(=O)NC(=O)/C=C/c2ccc(Cl)cc2)c(SCc2cc3c(cc2Cl)OCO3)cc1Cl [Compound 17c, (E)–N–{4–Chloro–2–[(6–chlorobenzo[d][1,3]dioxol–5–yl)methylthio]–5–methylphenylsulfonyl}–3–(4–chlorophenyl)acrylamide] | 2.24 × 10^8 CFU/mL | 1.09 × 10^8 CFU/mL | 2.02 × 10^8 CFU/mL | 9.35 × 10^7 CFU/mL | 1.3 | 14.6 ± 0.58 (≈ 25.5 µM) | 1.2 | 1.2 | 7.80 × 10^6 CFU/mL | 4.25 × 10^6 CFU/mL | 1.40 × 10^7 CFU/mL | 5.10 × 10^6 CFU/mL | MIC (E. hirae ATCC 10541): 2 ± 0.58 µg/mL (≈ 3.5 µM); MIC (E. coli ATCC 8739): > 125 µg/mL |
| 627.81 ± 2.29 (≈ 1160 µM) | < 10 | 62.5 ± 0.29 (≈ 115 µM) | 2 ± 0.87 (≈ 3.69 µM) | 7.87 ± 0.03 (≈ 14.5 µM) | > 125 | 348.21 ± 0.29 (≈ 642 µM) | 12.8 ± 0.29 (≈ 23.6 µM) | Cc1cc(S(=O)(=O)NC(=O)/C=C/c2ccc(Cl)cc2)c(SCc2cccc3ccccc23)cc1Cl [Compound 16d, (E)–N–{4–Chloro–5–methyl–2–[(naphthalen–1–yl)methylthio]phenylsulfonyl}–3–(4–chlorophenyl)acrylamide] | 1.88 × 10^8 CFU/mL | 1.66 × 10^8 CFU/mL | 1.58 × 10^8 CFU/mL | 1.27 × 10^8 CFU/mL | 1.1 | 10.8 ± 0.4 (≈ 19.9 µM) | 1.4 | 0.8 | 4.00 × 10^6 CFU/mL | 3.00 × 10^6 CFU/mL | 2.00 × 10^6 CFU/mL | 2.50 × 10^6 CFU/mL | IC50 (HeLa cells): 9.66 ± 0.75 µg/mL (≈ 17.8 µM); MIC (E. hirae ATCC 10541): 2 ± 0.58 µg/mL (≈ 3.69 µM); MIC (E. coli ATCC 8739): > 125 µg/mL |
